Columns and labels:
mA1AR = molecular target: T1, mA1AR (Mus musculus, UniProt Q60612); assay: Competition radioligand binding, mA1AR; settings: for inhibition at 10 µM: mouse A1AR, percent inhibition at 10 μM
T1 construct: expressed in transfected cells; host or cells: HEK-293
T1 sequence (Q60612 1-326): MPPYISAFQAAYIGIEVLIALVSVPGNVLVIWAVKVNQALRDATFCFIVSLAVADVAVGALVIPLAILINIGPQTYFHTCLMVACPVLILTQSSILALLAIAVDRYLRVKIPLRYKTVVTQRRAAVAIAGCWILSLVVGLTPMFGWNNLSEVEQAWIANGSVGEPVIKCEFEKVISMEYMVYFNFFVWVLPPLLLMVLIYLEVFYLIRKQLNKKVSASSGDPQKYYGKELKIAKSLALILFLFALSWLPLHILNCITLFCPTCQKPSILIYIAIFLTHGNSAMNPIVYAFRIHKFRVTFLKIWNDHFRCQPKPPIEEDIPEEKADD
Experimental: The affinity of the amine congeners and other antagonists was measured using standard radioligand binding assays for hA1, A2A and A3ARs (Table 1).[1],[13],[14],[22] Membranes of human embryonic kidney (HEK)293 cells expressing the AR of interest were used in the assay. Primary amine congeners 6a–6d containing spacers of 2–5 methylenes were similar in terms of hA2AAR affinity (Ki 6–9 nM), with the butylamino congener 6c displaying the highest A2AAR selectivity in the series. The affinity of this compound for the hA3AR was determined to be 6.0 μM, with only slightly higher hA1AR affinity. Homologation to 6 methylenes in compound 6e lowered A2AAR affinity. […] No dependence of the affinity on the chain length was evident when comparing AlexaFluor647 conjugates 9 and 10. […]
Radioligand binding assays: Cell membranes were prepared as reported.1
Binding assays were carried out using standard radioligands and membrane preparations from HEK-293 cells stably expressing the human (h) A1, A2A or A3ARs or mouse (m) A1, A2A or A3ARs. The radioligands used were: A1AR, [3H]8-cyclopentyl-1,3-dipropylxanthine 14; A2AAR, [3H]2; A3AR, [125I]N6-(4-amino-3-iodobenzyl)adenosine-5′-N-methyluronamide 16. The radioligand for archival A2AAR affinity data presented in Table 1 was [3H]2-[p-(2-carboxyethyl)phenyl-ethylamino]-5′-N-ethylcarboxamidoadenosine 15. Nonspecific binding was determined using 10 µM 8-[4-[[[[(2-aminoethyl)amino]carbonyl]methyl]oxy]phenyl]-1,3-dipropylxanthine 17 (A1AR and A2AAR) or 10 µM adenosine-5′-N-ethyluronamide 18 (A3AR). HEK-293 cells expressing recombinant mA1, A2A, or A3AR […]
Protein was determined as reported.2 In all the binding experiments, IC50 values and Ki values were calculated using GraphPad Prism software (San Diego, CA). Values are expressed as mean±SEM. […]
Med. Chem. Comm., 2015, 6:555-563.
2. Bradford, M. M. A rapid and sensitive method for the quantitation of microgram quantities of protein utilizing the principle of protein -dye binding. Anal. Biochem. 1976, 72, 248-254.

hA2AAR = molecular target: T2, hA2AAR (Homo sapiens, UniProt P29274); assay: Flow cytometry saturation binding of fluorescent antagonists in whole cells; type: cell-based; settings: hA2AAR-expressing HEK-293 cells; for nonspecific binding: result in words
T2 construct: expressed in transfected cells
T2 sequence (P29274 whole entry): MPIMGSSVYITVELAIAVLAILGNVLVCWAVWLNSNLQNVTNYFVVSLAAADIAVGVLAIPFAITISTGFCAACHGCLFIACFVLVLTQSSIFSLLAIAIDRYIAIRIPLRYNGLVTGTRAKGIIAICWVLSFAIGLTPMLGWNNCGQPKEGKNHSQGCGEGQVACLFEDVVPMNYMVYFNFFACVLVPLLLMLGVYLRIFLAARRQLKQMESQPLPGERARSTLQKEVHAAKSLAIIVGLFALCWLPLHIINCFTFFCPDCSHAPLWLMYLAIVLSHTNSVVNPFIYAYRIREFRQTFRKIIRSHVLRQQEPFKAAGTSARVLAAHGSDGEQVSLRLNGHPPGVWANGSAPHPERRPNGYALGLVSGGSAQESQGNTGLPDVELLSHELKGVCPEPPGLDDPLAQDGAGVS
Experimental: Compounds 11 and 12 were tested as fluorescent tracers for flow cytometry of HEK-293 cells expressing the hA2AAR (Fig. 4A). […] Thus, 11 tended to bind non-specifically to hydrophobic membranes by undetermined mechanisms. […]. For inhibition studies, the cells were co-incubated for one hour prior to flow cytometry with fluorescent probe 12 (10 nM) and a test antagonist. […]
Fig. 4 Saturation of fluorescent antagonists 11 (A) and 12 (B) in hA2AAR-expressing HEK-293 cells measured using flow cytometry following a 1 h incubation at 37 °C. Non-specific binding was determined with 10 μM 3. Results are expressed as the mean ± SEM. The Kd value calculated from Fig. 4B is listed in the text.
Cell culture for membrane binding assays and flow cytometry: HEK-293 cells stably expressing the A2AAR were grown in Dulbecco’s Modified Eagle’s Medium (DMEM) with 10% FBS, 100 units/ml penicillin, […] streptomycin, 2 mM L-glutamine and 0.500 mg/mL G418 Sulfate (Geneticin). Cells were maintained in a humidified atmosphere and sterile incubation conditions held at 37 °C and 5% CO2 (g). A day prior to the experiment, cells were plated on a 96 -well clear and flat bottom plate at 80 -90% confluency in 100 µL of medium. […]
Fluorescent binding studies: All binding studies were done in triplicate. For saturation binding studies, cells were treated with 50 µL of 11 (MRS 7396) or 12 (MRS 7416), to achieve a final concentration from 0.19 to 400 nM, and 50 µL of Tris-HCl buffer containing 10 mM MgCl2. Non-specific binding was determined with SCH442416 3 (final concentration of 10 µM, in Tris-HCl buffer). For displacement experiments, cells were incubated simultaneously with 50 µL of 40 nM 11 or 12 (final concentration 10 nM) and 50 µL of the non-labeled displacing ligand at increasing concentrations. The total binding was measured in the absence of a displacing ligand, and non-specific binding was determined with 10 µM 3.
After 1 h at 37 °C (for both the saturation and displacement experiments), the medium was removed and the cells were carefully washed two times with 150 µL of ice-cold PBS (not containing Mg+2 or Ca+2).
The cells were treated with 40 µL of Corning Cellstripper (Mediatech, Manassas, VA) per well and then incubated at 37 °C for 10 min. To each well was subsequently added 160 µL of PBS (not containing Mg+2 or Ca+2), and the cell fluorescence was analyzed with a BD FACSCalibur flow cytometer (Becton, Dickinson and Co., Franklin Lakes, NJ) with excitation at 635 nm (red diode laser, for 11) or 488 nm (blue laser, for 12) in conjunction with the software from BD Bioscience PlateManager and CellQuest. […]
2. Bradford, M. M. A rapid and sensitive method for the quantitation of microgram quantities of protein utilizing the principle of protein -dye binding. […]

Row | inhibition at 10 µM (mA1AR) [%] | specific binding, % of the total (hA2AAR; 1 h 37 °C, nonspecific with 10 μM 3) [%] | nonspecific binding (hA2AAR) | Kd (hA2AAR; 1 h 37 °C) [nM] | binding to the mA1AR (mA1AR; result in words) | SMILES
1 | 0 | < 25 | high nonspecific binding | – | – | Nc1nc2c(cnn2CCCc2ccc(OCC(=O)NCCCCNC(=O)CCCCCNC(=O)COc3ccc(/C=C/C4=[N+]5C(=Cc6ccc(-c7cccs7)n6[B-]5(F)F)C=C4)cc3)cc2)c2nc(-c3ccco3)nn12 [compound 11]
2 | 0 | – | low nonspecific binding | 45.4 | – | CCN(CC)CC.CCN(CC)CC.N=c1ccc2c(-c3ccc(C(=O)NCCCCNC(=O)COc4ccc(CCCn5ncc6c5nc(N)n5nc(-c7ccco7)nc65)cc4)cc3C(=O)O)c3ccc(N)c(S(=O)(=O)O)c3oc-2c1S(=O)(=O)O [compound 12]
3 | 21 | – | – | – | insignificant | N.Nc1nc2c(cnn2CCCc2ccc(OCc3ccc(S(=O)(=O)O)cc3)cc2)c2nc(-c3ccco3)nn12 [compound 13]

Source: article PMC5729930, “Bitopic fluorescent antagonists of the A2A adenosine receptor based on pyrazolo[4,3-e][1,2,4]triazolo[1,5-c]pyrimidin-5-amine functionalized congeners” (MedChemComm, 2017)
